Targets include Cytochrome P450 2C9 (Homo sapiens, UniProt P11712); Cytochrome P450 2D6 (Homo sapiens, UniProt P10635); Cytochrome P450 3A4 (Homo sapiens, UniProt P08684).
The next series deals with Cytochrome P450 2C19 (Homo sapiens, UniProt P33261). The experiment in a line: Cytochrome panel assay with activity outcomes. Panel member name: p450-cyp2c19 Compounds with AC50 equal or less than 10 uM are considered active. Type of series: functional.
The next series concerns the target T1, Cytochrome P450 1A2 (Homo sapiens, UniProt P05177).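 Note: PubChem cytochrome P450 panel assay, CYP1A2 panel member.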
T1 sequence (P05177 whole entry): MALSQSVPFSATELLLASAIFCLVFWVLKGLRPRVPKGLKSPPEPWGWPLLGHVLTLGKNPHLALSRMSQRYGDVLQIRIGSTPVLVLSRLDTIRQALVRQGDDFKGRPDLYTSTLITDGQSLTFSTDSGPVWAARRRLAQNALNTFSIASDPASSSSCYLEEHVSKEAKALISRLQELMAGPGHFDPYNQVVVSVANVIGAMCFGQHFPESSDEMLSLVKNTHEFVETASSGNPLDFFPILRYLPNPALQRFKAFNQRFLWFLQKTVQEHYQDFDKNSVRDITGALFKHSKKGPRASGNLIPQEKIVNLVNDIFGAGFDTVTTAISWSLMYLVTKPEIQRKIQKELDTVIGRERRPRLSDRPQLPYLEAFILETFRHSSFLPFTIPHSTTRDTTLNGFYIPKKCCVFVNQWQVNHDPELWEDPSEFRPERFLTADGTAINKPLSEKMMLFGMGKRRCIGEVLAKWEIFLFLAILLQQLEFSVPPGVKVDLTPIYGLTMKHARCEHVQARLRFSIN

The target of series [1] is T2, Heat shock factor protein 1 (Mus musculus, UniProt P38532).
T2 sequence (P38532 whole entry): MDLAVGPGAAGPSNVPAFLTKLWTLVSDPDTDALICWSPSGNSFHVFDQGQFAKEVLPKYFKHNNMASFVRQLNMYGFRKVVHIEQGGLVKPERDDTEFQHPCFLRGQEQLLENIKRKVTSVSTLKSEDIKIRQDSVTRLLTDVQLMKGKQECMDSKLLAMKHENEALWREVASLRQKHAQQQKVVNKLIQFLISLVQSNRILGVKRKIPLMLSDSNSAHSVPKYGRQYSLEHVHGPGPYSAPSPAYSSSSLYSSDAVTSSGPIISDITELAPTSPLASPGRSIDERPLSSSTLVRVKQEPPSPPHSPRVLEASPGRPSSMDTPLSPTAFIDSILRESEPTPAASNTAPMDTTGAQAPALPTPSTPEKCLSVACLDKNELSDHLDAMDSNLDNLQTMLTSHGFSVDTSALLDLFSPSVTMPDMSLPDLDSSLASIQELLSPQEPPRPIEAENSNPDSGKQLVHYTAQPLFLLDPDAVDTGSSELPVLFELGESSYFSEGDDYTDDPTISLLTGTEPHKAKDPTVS
The experiment in a line: HSF1 potentiators in luciferase reporter cells, confirmation, cell-based, NIH3T3, luminescence, dose retest (AID 435004).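 Note: stress induced by proteasome inhibitor MG132 added 30 min after compound; luciferase reporter driven by HSF1 response element in NIH3T3 cells; actives raise luminescence as potentiators of the MG132 stress response.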 Type of series: functional.

Experimental findings from ChEMBL document CHEMBL1201862, “PubChem BioAssay data set” (2004) are described below.

Calls of active or inactive are those of the source.

Cytochrome P450 2D6, sequence (P10635 whole entry): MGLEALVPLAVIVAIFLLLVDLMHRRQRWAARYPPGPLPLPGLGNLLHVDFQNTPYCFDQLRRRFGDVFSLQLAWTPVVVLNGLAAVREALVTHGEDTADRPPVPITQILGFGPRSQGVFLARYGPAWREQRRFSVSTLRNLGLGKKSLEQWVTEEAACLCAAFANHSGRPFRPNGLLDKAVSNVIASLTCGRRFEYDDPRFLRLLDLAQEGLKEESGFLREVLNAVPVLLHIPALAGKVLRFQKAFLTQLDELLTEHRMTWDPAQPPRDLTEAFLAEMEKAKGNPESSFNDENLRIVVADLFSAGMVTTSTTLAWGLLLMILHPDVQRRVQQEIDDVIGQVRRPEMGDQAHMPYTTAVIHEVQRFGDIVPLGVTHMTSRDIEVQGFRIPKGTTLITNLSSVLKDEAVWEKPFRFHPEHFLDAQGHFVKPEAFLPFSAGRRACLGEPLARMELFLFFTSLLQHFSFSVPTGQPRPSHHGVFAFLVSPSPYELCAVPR
Cytochrome P450 2C9, sequence (P11712 whole entry): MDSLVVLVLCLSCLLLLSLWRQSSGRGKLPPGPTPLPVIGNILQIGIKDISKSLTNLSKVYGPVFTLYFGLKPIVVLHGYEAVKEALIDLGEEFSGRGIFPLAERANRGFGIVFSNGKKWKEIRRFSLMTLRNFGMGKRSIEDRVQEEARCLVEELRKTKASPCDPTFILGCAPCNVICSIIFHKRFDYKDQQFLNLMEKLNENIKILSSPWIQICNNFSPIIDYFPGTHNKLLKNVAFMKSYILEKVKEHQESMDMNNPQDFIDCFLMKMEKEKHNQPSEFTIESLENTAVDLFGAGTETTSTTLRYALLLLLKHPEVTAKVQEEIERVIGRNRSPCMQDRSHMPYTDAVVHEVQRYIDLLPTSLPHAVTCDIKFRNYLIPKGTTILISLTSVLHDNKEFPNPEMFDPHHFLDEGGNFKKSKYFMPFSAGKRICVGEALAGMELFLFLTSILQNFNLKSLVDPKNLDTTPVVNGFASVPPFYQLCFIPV
Cytochrome P450 2C19, sequence (P33261 whole entry): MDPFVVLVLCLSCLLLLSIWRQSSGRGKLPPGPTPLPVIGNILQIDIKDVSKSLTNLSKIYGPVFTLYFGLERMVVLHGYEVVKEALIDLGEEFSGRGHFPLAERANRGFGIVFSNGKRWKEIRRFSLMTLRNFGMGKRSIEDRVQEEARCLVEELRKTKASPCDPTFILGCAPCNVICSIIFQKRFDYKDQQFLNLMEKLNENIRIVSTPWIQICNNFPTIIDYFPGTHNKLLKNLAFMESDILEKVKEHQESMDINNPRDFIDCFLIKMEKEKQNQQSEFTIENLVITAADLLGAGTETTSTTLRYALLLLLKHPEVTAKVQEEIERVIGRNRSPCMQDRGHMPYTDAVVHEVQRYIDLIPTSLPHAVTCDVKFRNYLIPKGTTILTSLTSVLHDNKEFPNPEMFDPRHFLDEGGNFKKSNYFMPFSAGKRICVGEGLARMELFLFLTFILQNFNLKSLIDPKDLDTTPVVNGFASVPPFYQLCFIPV
Cytochrome P450 3A4, sequence (P08684 whole entry): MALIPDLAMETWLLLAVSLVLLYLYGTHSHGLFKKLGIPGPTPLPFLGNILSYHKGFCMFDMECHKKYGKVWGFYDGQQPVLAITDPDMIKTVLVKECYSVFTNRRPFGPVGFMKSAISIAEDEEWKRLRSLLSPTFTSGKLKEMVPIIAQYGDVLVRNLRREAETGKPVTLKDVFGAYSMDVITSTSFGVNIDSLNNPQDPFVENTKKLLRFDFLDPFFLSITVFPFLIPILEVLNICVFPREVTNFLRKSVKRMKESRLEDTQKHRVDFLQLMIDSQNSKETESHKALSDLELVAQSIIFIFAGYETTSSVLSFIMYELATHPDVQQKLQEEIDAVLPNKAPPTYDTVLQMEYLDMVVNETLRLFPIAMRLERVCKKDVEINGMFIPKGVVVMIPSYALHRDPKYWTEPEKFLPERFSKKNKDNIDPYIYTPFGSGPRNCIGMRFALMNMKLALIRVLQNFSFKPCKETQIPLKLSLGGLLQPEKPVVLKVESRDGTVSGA

On to `O=S(=O)(c1ccccc1)N1CCC2(CCN(Cc3ccncc3)CC2)CC1`, for which the AC50 on Cytochrome P450 2C9 and on Cytochrome P450 2D6 was 25.1 µM (inconclusive) each time.

For the compound `CCCCN1C(=O)CN(CCc2ccccc2)C(=O)C1c1ccc(OC)cc1` (stereo not given), the AC50 is 20 µM (inconclusive) on Cytochrome P450 2C9 and 39.8 µM (inconclusive) on Cytochrome P450 2D6.

Regarding `O=C(NCc1ccc(F)cc1)C1CCN(S(=O)(=O)N2CCCCC2)CC1`, the AC50 at Cytochrome P450 2C9 is 10 µM (inconclusive); on Cytochrome P450 3A4, 14.1 µM (inconclusive); at Cytochrome P450 2C19 (read-out: AC50), 31.6 µM (inconclusive).

`CO[C@H]1OC[C@@]2(C)[C@@H]3C4=C(CN2C(=O)OC(C)(C)C)[C@H](C)[C@H](CO)[C@H](CO)[C@H]4CC[C@H]13`: the half-maximal activity concentration (AC50) on Cytochrome P450 2C9 is 20 µM (inconclusive); on Cytochrome P450 3A4, 10 µM (inconclusive); at Cytochrome P450 2C19 (read-out: AC50), 39.8 µM (inconclusive).

`O=C(c1cc(C(F)(F)F)cc(C(F)(F)F)c1)N1CCC2(CCCN(c3ccncc3)C2)CC1`: the figures for the AC50 at Cytochrome P450 2C9 and at Cytochrome P450 2D6 were 31.6 µM (inconclusive) and 15.8 µM (inconclusive), respectively.

Turning to `CSc1ccc(C#N)cc1NC(=O)c1cccc(Cl)c1`, the results for the half-maximal activity concentration (AC50) on Cytochrome P450 2C9 and on Cytochrome P450 2D6 were 39.8 µM (inconclusive) and 10 µM (inconclusive), respectively.

In the case of `CSc1cccc(NC(=O)c2ccc(Cl)nc2)c1`, the AC50 on Cytochrome P450 2C9 is 39.8 µM (inconclusive); at Cytochrome P450 2D6 it was 14.1 µM (inconclusive); at Cytochrome P450 2C19 (read-out: AC50), 25.1 µM (inconclusive).

Take `CCN1C/C(=C\c2cccc(C)c2)c2nc3ccccc3c(C(=O)O)c2C1`: the figures for the half-maximal activity concentration (AC50) at Cytochrome P450 2C9, at Cytochrome P450 2D6 and at Cytochrome P450 3A4 were 8.91 µM (inconclusive), 17.8 µM (inconclusive) and 25.1 µM (inconclusive), respectively.

As for `CCC(C)NC(=O)c1c(C)cc(=O)oc1C` (stereo not given), the AC50 on Cytochrome P450 2C9 was 5.01 µM (inconclusive); on Cytochrome P450 1A2, 28.2 µM (inconclusive).

Regarding `COc1ccc2[nH]c(C(=O)c3ccccc3)cc2c1`, on Cytochrome P450 2C9, the half-maximal activity concentration (AC50) is 39.8 µM (inconclusive).

As for `O=C(COc1ccc(Cl)cc1)NCCCNC(=O)c1ccccn1`, the EC50 in series [1] was > 260 µM (inactive).

In the case of `CCOC(=O)CSc1nc(O)c2cnn(-c3ccc(C)cc3)c2n1`, the AC50 was 2.24 µM (inconclusive) on Cytochrome P450 2C9, 3.16 µM (inconclusive) on Cytochrome P450 3A4 and “inconclusive” at Cytochrome P450 2C19.

As to `c1coc(CN2CCN(C(c3cccs3)c3nnnn3C3CCCC3)CC2)c1` (stereo not given), the AC50 on Cytochrome P450 2C9 is 31.6 µM (inconclusive).

On to `Cc1ccc(S(=O)(=O)NC2c3cccc4cccc(c34)C2Sc2nncn2C)cc1` (stereo not given), for which the EC50 in series [1] is > 260 µM (inactive).

On to `CNC(=O)N(O)C1N(/N=C/c2c(F)cccc2Cl)C(=S)SC1(C)C` (stereo not given), for which the EC50 in series [1] is > 260 µM (inactive).
